The record followed here is ChEMBL document CHEMBL6074689 (Eur J Med Chem, 2025).

Each structure is given as a SMILES string. Activity calls are given as the source filed them. The rule behind the calls is not given here.

For data set [1], the target named is T1, Acetylcholinesterase (Homo sapiens, UniProt P22303). Nature of the data set: Displacement of propidium iodide from human AChE PAS assessed as reduction in fluorescence intensity at 1 uM incubated for 6 hrs by fluorescence based analysis relative to control. More on the design: scale not given: the % may be the effect or the level left.
In data set [2] the target is T1, Acetylcholinesterase. Description: Displacement of propidium iodide from human AChE PAS assessed as reduction in fluorescence intensity at 0.01 uM incubated for 6 hrs by fluorescence based analysis relative to control. Also on record: scale not given: the % may be the effect or the level left.
The test system of a further data set is PC-12. Description: Induction of apoptosis in rat PC-12 cells assessed as viable cells at 20 uM incubated for 24 hrs by Annexin V/PI staining based flow cytometry analysis (reference value: 82.8%). The data set is classed as functional. The conditions noted are these: read-out: Activity. For orientation: In flow cytometry, cells or beads pass a laser one at a time.

Data set [3] can be described thus: Metal chelating activity assessed as compound-Fe2+ complex formation by measuring increase in absorption intensity at 300 uM in presence of by UV-vis spectrometry.
A short description of data set [4]: Metal chelating activity assessed as compound-Cu2+ complex formation by measuring increase in absorption intensity at 300 uM in presence of by UV-vis spectrometry.
Data set [5] can be described thus: Permeability of the compound across blood brain barrier. It counts as ADME. The conditions noted are these: read-out: BBB.
In data set [6] the target is Amyloid-beta precursor protein (Homo sapiens) (UniProt P05067). Description: Inhibition of amyloid beta (1 to 42) (unknown origin) self induced aggregation at 1.521 uM incubated for 72 hrs by ThT fluorescence based assay.
Data set [7] has the same target. Description: Inhibition of amyloid beta (1 to 42) (unknown origin) self induced aggregation at 1.521 uM incubated for 72 hrs by transmission electron microscopic analysis.
A short description of data set [8]: Toxicity in Drosophila melanogaster Oregon R-positive assessed as reduction in eclosed flies at 20 uM measured for 15 days relative to control. More on the design: scale not given: the % may be the effect or the level left. The following applies: 360 h, time 15 day.
The nature of data set [9]: Toxicity in Drosophila melanogaster Oregon R-positive assessed as reduction in eclosed flies at 40 uM measured for 15 days relative to control. Also on record: scale not given: the % may be the effect or the level left. The conditions noted are these: 360 h, time 15 day.
Data set [10] has as its system Drosophila melanogaster. Nature of the data set: Anti-alzheimer activity in ey-GAL4 driven UAS-amyloid beta (1 to 42) induced Drosophila melanogaster Oregon R-positive assessed as mild eye phenotype at 10 to 20 uM by Stereo zoom microscopic imaging analysis relative to control. The following applies: dose 10-20 µM. The data set is classed as functional.
For data set [11], the system named is Drosophila melanogaster. Nature of the data set: Anti-alzheimer activity in ey-GAL4 driven UAS-amyloid beta (1 to 42) induced Drosophila melanogaster Oregon R-positive assessed as rescued eye phenotype at 10 uM by Stereo zoom microscopic imaging analysis relative to control. The data set is classed as functional.
Data set [12] concerns Drosophila melanogaster. Description: Anti-alzheimer activity in ey-GAL4 driven UAS-amyloid beta (1 to 42) induced Drosophila melanogaster Oregon R-positive assessed as severe eye phenotype at 100 uM by Stereo zoom microscopic imaging analysis relative to control. It counts as functional.
For data set [13], the system named is Drosophila melanogaster. Description: Anti-alzheimer activity in ey-GAL4 driven UAS-amyloid beta (1 to 42) induced Drosophila melanogaster Oregon R-positive assessed as increase in superoxide level at 10 to 20 uM by fluorescence based analysis. The following applies: dose 10-20 µM. The data set is classed as functional, organism-based.
The nature of data set [14]: Acute toxicity in Swiss albino mouse assessed as convulsion at 175 mg/kg, po administered for 14 days. It counts as organism-based. The conditions noted are these: in vivo, 336 h, time 14 day.
Data set [15] can be described thus: Acute toxicity in Swiss albino mouse assessed as tremor at 175 mg/kg, po administered for 14 days. The data set is classed as organism-based. The conditions noted are these: in vivo, 336 h, time 14 day.
In data set [16] the test system is Mus musculus. Nature of the data set: Antialzheimer activity in scopolamine-induced Swiss albino mouse model assessed as reduction in AChE level at 0.3 to 0.5 mg/kg, po preincubated with compound for 30 mins followed by scopolamine induction and measured after 30 mins. It counts as functional, organism-based. The following applies: dose 0.3-0.5 mg/kg, time 1.0 hrs.

Data set [17] relates to Mus musculus. Nature of the data set: Antialzheimer activity in scopolamine-induced Swiss albino mouse model assessed as reduction in BChE level at 0.3 to 0.5 mg/kg, po preincubated with compound for 30 mins followed by scopolamine induction and measured after 30 mins. The data set is classed as functional, organism-based. The conditions noted are these: dose 0.3-0.5 mg/kg, time 1.0 hrs.

The test system of data set [18] is Mus musculus. Nature of the data set: Antioxidant activity against scopolamine-induced Swiss albino mouse model assessed as increase in MDA level at 0.3 to 0.5 mg/kg, po by absorbance based analysis. The following applies: dose 0.3-0.5 mg/kg. The data set is classed as functional, organism-based.
Data set [19] deals with Mus musculus. Nature of the data set: Neuroprotective activity against scopolamine-induced Swiss albino mouse model assessed as increase in CREB1 mRNA level at 0.3 to 0.5 mg/kg, po measured after 6 days by RT-PCR analysis. The data set is classed as functional, organism-based. The conditions noted are these: dose 0.3-0.5 mg/kg, time 6.0 day.
Data set [20] deals with Mus musculus. Nature of the data set: Neuroprotective activity against scopolamine-induced Swiss albino mouse model assessed as increase in C-FOS mRNA level at 0.3 to 0.5 mg/kg, po measured after 6 days by RT-PCR analysis. It counts as functional, organism-based. The following applies: dose 0.3-0.5 mg/kg, time 6.0 day.
Data set [21] concerns Mus musculus. Nature of the data set: Neuroprotective activity against scopolamine-induced Swiss albino mouse model assessed as increase in NR4A2 mRNA level at 0.3 to 0.5 mg/kg, po measured after 6 days by RT-PCR analysis. The data set is classed as functional, organism-based. The following applies: dose 0.3-0.5 mg/kg, time 6.0 day.
Data set [22] deals with Mus musculus. Nature of the data set: Neuroprotective activity against scopolamine-induced Swiss albino mouse model assessed as upregulation of PKA mRNA level at 0.3 to 0.5 mg/kg, po measured after 6 days by RT-PCR analysis. The conditions noted are these: dose 0.3-0.5 mg/kg, time 6.0 day. The data set is classed as functional, organism-based.
The test system of data set [23] is Mus musculus. Nature of the data set: Neuroprotective activity against scopolamine-induced Swiss albino mouse model assessed as upregulation of MMP9 mRNA level at 0.3 to 0.5 mg/kg, po measured after 6 days by RT-PCR analysis. The conditions noted are these: dose 0.3-0.5 mg/kg, time 6.0 day. The data set is classed as functional, organism-based.

In general, inhibition refers to the drop in the measured response relative to a control, in per cent.

T1 sequence (P22303 whole entry): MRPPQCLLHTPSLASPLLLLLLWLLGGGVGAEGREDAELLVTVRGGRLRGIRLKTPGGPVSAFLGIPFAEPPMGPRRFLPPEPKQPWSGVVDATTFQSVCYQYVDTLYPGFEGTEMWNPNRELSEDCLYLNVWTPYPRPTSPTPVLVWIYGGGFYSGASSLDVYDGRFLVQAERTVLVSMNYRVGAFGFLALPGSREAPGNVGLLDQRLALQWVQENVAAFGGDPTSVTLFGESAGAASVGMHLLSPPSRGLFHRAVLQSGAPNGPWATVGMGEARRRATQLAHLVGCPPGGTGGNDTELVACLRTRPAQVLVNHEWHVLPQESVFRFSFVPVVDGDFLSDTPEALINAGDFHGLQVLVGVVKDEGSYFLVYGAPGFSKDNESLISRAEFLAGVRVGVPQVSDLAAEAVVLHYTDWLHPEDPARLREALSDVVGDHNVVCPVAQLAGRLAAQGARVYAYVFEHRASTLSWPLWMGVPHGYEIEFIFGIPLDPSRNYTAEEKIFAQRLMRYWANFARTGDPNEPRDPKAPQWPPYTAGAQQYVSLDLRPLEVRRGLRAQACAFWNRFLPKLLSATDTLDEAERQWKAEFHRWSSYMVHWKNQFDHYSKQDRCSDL
Amyloid-beta precursor protein (Homo sapiens), sequence (P05067 whole entry): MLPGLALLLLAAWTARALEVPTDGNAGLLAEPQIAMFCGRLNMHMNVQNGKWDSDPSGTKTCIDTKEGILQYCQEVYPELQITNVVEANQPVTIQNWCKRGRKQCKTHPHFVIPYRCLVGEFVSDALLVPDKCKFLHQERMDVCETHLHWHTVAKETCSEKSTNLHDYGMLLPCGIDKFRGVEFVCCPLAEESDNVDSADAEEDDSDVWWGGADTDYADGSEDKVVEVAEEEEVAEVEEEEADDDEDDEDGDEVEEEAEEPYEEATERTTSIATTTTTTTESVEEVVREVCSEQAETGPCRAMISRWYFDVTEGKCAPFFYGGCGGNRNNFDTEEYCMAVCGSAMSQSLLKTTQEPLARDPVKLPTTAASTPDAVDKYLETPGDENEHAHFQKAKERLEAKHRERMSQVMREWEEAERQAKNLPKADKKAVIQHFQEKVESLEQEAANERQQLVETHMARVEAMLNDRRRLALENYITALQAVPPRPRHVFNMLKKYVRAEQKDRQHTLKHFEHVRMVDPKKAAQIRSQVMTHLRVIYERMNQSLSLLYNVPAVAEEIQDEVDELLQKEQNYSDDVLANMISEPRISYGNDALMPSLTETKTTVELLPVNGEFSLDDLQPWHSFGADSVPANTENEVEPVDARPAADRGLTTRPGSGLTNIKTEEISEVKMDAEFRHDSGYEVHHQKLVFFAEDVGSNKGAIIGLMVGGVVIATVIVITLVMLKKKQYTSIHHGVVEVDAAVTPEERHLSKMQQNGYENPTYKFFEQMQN

For the compound `C[C@@H](c1cccc(OC(=O)NCCc2c[nH]c3ccc(Cl)cc23)c1)N(C)C`, the Activity came out at 20.4% on Acetylcholinesterase [1]; 1.37% on Acetylcholinesterase [2]; 103% in data set [8]; 20% in data set [9]; 36% in the data set with Drosophila melanogaster [10]; 43% in the data set on Drosophila melanogaster [11]. Moreover, the Activity is recorded as 26% in the data set on Drosophila melanogaster [12], “Non-toxic” in data set [14] and “Non-toxic” in data set [15]. The viability at 20 µM in the data set with PC-12 stood at 81.5%. In addition, the outcome in [3] and in data set [4] was inactive. Moreover, the Papp in data set [5] was determined as 13 ×10⁻⁶ cm/s. Further, the inhibition in data set [6] was found to be 100%. In addition, the inhibition entry in [7] is “Active”. The result in the data set with Drosophila melanogaster [13], with Mus musculus [16], in the data set on Mus musculus [17], in the data set on Mus musculus [18], in the data set with Mus musculus [19] and with Mus musculus [20] was Active. Moreover, the outcome in the data set on Mus musculus [21], in the data set with Mus musculus [22] and in the data set with Mus musculus [23] was Active.
